The NIST ThermoML archive (doi:10.1016/j.fluid.2018.04.020)
± gives the expanded uncertainty stated by the source.

Conditions: 101.33 kPa, Liquid, Vibrating tube method

mass density (293.15 K) [kg/m3]	mass density (303.15 K) [kg/m3]	mass density (313.15 K) [kg/m3]	mass density (323.15 K) [kg/m3]	Compound
1008.9 ± 2.2	1003 ± 2.1	997.3 ± 2.1	991.4 ± 2.1	CCCC[N+]1(C)CCCC1.N#CC(=C=[N-])C#N [1-butyl-1-methylpyrrolidinium tricyanomethanide]
1038.3 ± 2.2	1032.1 ± 2.2	1025.7 ± 2.2	1019.7 ± 2.2	CCCC[n+]1ccc(C)cc1.N#CC(=C=[N-])C#N [1-butyl-4-methylpyridinium tricyanomethanide]
